Experimental data taken from patent EP4703364A1, “QUINOLONE ANALOG AND USE THEREOF” (Horizon Omics Biotech Limited, priority 2023, dated 2024).

How the values were obtained:
[1] = In-vivo pharmacokinetic study in mice (bioavailability testing); conditions: mouse, plasma; oral (PO) and intravenous (IV) routes, female Balb/c nude mice
Protocol: Test compounds were administered to mice via oral (PO) and intravenous (IV) routes. The test compounds were dissolved at room temperature. The mice used in the study were Balb/c nude mice, all female, aged 6-8 weeks, with a body weight of 20-30 grams. Before administration, the mice had free access to food and water. Blood samples (approximately 0.03 mL per sample) were collected from the vein at appropriate time points. The samples were placed in tubes containing an anticoagulant and stored on ice until centrifugation. Blood samples were collected at 0.083, 0.25, 0.5, 1, 2, 4, 8, and 24 hours after intravenous administration, and at 0.25, 0.5, 1, 2, 4, 8, and 24 hours after oral administration. The blood samples were centrifuged at approximately 4000 rpm at 2-8 °C for 5 minutes. Plasma samples were then collected and stored frozen at approximately -80 °C until analysis. The LC-MS/MS system was used for bioanalytical work. Table 4. Bioavailability Testing

[2] = test system: human herpesvirus HCMV-AD169; assay: Antiviral cell-protective activity, GFP-labeled HCMV-AD169 in MRC5 cells; format: cell-based; conditions: for EC50: Human betaherpesvirus 5, 168 h, HCMV-AD169 GFP fluorescence, 7 days, read-out: Virus inhibition EC50; for SI (CC50/EC50): therapeutic index, HCMV-AD169
Protocol: MRC5 cells were seeded in microplates at a specific density and cultured overnight in an incubator at 37 °C with 5% CO2. Serially diluted compounds and GFP-labeled human herpesvirus HCMV-AD169 were added to the microplates. A cell control group (cells without compound treatment or viral infection) and a virus control group (cells infected with the virus but without compound treatment) were set up. The test compounds and control compounds were tested at 8 concentrations, with 3-fold serial dilutions and triplicate wells for each concentration. Meanwhile, the cytotoxicity of the test compounds and control compounds on cells was determined. The cells were cultured in an incubator at 37 °C with 5% CO2 for 7 days. Acumen Cellista was used to detect the GFP fluorescence intensity inside the cells in each well. Cell viability detection reagents CCK-8 or Cell Titer Glo were used to measure cell viability, and the original data were used for calculating the cytotoxicity of the test compounds. GraphPad Prism software was applied to analyze the dose-response curves of the test compounds, calculate the virus inhibition EC50 and cytotoxicity CC50 values, and further calculate the therapeutic index (SI), using the formula SI = CC50/EC50, which was used to evaluate the therapeutic potential of the drug; a higher SI value indicates stronger efficacy of the drug against viruses.

DLD1 BRCA2^-/- = assay: Cell activity assay (CellTiterGlo), BRCA2 gene knockout DLD1 cancer cells; format: cell-based; conditions: Homo sapiens, DLD-1, 144 h, read-out: IC50(nM) DLD1 BRCA2^-/-
Protocol: (§1) • (1) Compound Treatment • a) Preparation of Stock Solutions of Compounds Test compounds were dissolved in DMSO at a concentration of 10 mM or 5 mM, and Olaparib was dissolved in DMSO at a concentration of 10 mM. • b) Compound Storage All compounds dissolved in DMSO were stored in a desiccator at room temperature for short-term storage and transferred to a -20°C refrigerator for long-term storage. • c) Preparation of Working Concentrations of Compounds
(§2) Test compounds were serially diluted in DMSO at a 3-fold gradient to prepare 10 concentration gradients, starting from 10 µM.
(§3) Olaparib was serially diluted in DMSO at a 3-fold gradient to prepare 10 concentration gradients, starting from 10 µM.
(§4) The 384-well plate loaded with the compounds was centrifuged at 1000 rpm for 1 minute.
(§5) • a) Cells were added to the culture medium and incubated in a cell culture incubator at 37°C with 5% CO2. • b) 40 µL of BRCA1- or BRCA2-deficient cells were added to a 384-well plate and incubated overnight at 37°C with 5% CO2. • c) The test compounds were prepared at different concentration gradients on the master plate, and 80 nL of the test compounds and Olaparib were taken from the master plate and added to the 384-well plate containing cells, and incubated at 37°C with 5% CO2 for 6 days. • d) CellTiterGlo (30 µL per well) was added to the 384-well plate, and after incubation at room temperature in the dark for 30 minutes, measurement was performed using an Envision plate reader.
(§6) • a) GraphPad Prism software was used to calculate the ICso and plot the activity curves as a function of concentration. • b) The inhibition of cell activity by the compounds was calculated using the following formula: % Inhibition = [1−(Cmpd−Blank)/(DMSO−Blank)]*100 [formula]

hERG = hERG (Homo sapiens, UniProt Q12809); assay: hERG cardiotoxicity assay (patch clamp, hERG stably expressed HEK 293 cell line); format: cell-based; conditions: hERG current, HEK 293 cells, 5 doses
Protocol: Assay Method: 1) The hERG stably expressed HEK 293 cell line (Cat# K1236) was purchased from Invitrogen. Cells were cultured in a medium consisting of 85% DMEM, 10% FBS, 0.1 mM NEAA, 25 mM HEPES, 100 U/mL penicillin-streptomycin, 5 µg/mL Blasticidin, and 400 µg/mL Geneticin. Cells were passaged approximately three times a week using TrypLE™ Express and maintained at ~40% to ~80% confluency. Before assay, cells were placed on coverslips with 5×10^5 cells per 6-cm cell culture dish and induced with 1 µg/mL doxycycline for 48 hours. 2) The coverslip was removed from the cell culture dish and placed on the microscope stage. A suitable cell was located using a 10× objective. The tip of the electrode was located under the microscope using the 10× objective, and the focus was adjusted to the plane of the cell. Once the tip was in focus, the coarse control of the manipulator was used to advance the electrode downward toward the cell while moving the objective to keep the tip in focus. When directly above the cell, the objective was switched to 40× objective, and the fine control of the manipulator was used to approach the cell surface in small steps. 3) A blank control was first performed to establish a baseline. […] In the presence of the test compounds, the hERG current was recorded for approximately 5 minutes to reach a steady state, followed by capturing 5 scans. For dose-response testing, 5 doses of the test compounds were cumulatively applied to the cells from low to high concentrations. The positive control, dofetilide at a concentration of 150 nM, was applied to each cell, and the hERG current was measured in the test compounds at the highest concentration as a negative control to normalize the percentage of inhibition. To ensure good performance of the cultured cells and operations, cells from the same batch were also tested with 5 doses of dofetilide. Table 5. hERG Toxicity Assay Results

[3] = Toxicity assay in mice, repeated dosing at 55 mg/kg, body weight; format: in vivo; conditions: 55 mg/kg PO once every 3 days, 4 repeated administrations, female Balb/c mice
Protocol: Test compounds were administered to mice via the oral (PO) route. The test compounds were dissolved at room temperature. The mice (Balb/c) used in the study were all female, and aged 6-8 weeks. Before administration, the mice had free access to food and water.
Vehicle control: 50 mM NaH2PO4, pH 4.0. CX-5461 and the H series compounds were administered once every 3 days at a dose of 55 mg/kg, with four doses administered in total.

UWB1.289 Cells = assay: Cell activity assay (CellTiterGlo), BRCA1 gene-deficient ovarian cancer cells UWB1.289; format: cell-based; conditions: UWB1289, 144 h, BRCA1 gene-deficient ovarian cancer cells UWB1.289, 6 days incubation
Protocol: as §1, §2, §3, §4, §5, §6

[4] = Toxicity assay in mice, repeated dosing at 50 mg/kg, body weight; format: in vivo; conditions: 50 mg/kg PO once every 3 days; for overall condition / clinical symptoms: 21 days; for overall condition / clinical symptoms / effect on mouse body weight: female mice; for effect on mouse body weight: after 21 days of repeated administration
Protocol: Test compounds were administered to mice via the oral (PO) route. The test compounds were dissolved at room temperature. The mice used in the study were all female, and aged 6-8 weeks. Before administration, the mice had free access to food and water. Vehicle control: 50 mM NaH2PO4, pH 4.0, administered once every 3 days. CX-5461 and Compound H-31 were administered once every 3 days at a dose of 50 mg/kg. If the body weight of the mice decreased by more than 15%, administration was suspended until the body weight recovered, after which administration was resumed.

MDA-MB-436 cancer cells = assay: Inhibition of human-derived cancer in mouse model (MDA-MB-436 subcutaneous tumors); format: in vivo, NOD SCID mice; conditions: MDA-MB-436 model, oral
Protocol: The anti-cancer efficacy of the compounds of the present application was evaluated in NOD SCID mice. Female mice aged 6-8 weeks were subcutaneously inoculated with MDA-MB-436 cancer cells to form tumors. When the tumors reached a size of 100-150 mm^3, the mice were randomly divided into groups, with 6 mice in each group. The administration route was oral administration. Olaparib was administered once a day at a dose of 100 mg/kg for a total of 28 days. The vehicle control group and Compound H-31 were administered once every 3 days at a dose of 25 mg/kg.

Chain of hERG (Q12809 whole entry): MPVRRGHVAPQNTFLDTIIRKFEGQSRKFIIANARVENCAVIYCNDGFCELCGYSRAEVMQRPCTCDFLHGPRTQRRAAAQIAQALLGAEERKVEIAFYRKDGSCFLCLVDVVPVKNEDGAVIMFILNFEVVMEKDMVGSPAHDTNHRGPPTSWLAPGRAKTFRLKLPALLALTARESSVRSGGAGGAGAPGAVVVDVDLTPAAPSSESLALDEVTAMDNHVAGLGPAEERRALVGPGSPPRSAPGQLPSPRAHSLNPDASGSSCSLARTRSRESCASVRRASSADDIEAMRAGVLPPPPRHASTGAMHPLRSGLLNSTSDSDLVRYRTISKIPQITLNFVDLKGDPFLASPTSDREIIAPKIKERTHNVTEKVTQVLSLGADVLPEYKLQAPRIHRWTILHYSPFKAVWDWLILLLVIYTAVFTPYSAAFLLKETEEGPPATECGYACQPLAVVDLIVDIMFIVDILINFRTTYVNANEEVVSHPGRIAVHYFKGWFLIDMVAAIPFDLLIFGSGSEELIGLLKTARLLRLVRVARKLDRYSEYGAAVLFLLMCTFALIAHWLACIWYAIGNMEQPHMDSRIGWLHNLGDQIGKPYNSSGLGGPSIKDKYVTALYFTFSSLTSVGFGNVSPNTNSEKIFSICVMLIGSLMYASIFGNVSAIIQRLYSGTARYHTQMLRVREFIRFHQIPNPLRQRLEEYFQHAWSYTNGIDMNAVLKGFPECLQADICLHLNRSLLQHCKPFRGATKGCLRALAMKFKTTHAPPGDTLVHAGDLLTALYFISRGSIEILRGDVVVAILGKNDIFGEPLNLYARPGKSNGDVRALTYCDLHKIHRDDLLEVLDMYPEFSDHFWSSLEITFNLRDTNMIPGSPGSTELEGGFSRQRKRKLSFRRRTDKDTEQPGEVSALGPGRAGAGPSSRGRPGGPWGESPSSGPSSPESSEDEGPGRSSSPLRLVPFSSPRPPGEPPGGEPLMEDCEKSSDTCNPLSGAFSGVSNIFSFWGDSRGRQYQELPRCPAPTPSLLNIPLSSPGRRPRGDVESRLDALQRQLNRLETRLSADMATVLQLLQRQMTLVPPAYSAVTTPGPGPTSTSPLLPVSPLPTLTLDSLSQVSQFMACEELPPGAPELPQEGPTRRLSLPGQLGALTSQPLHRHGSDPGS

Row | SMILES | bioavailability [1] [%] | IC50 (DLD1 BRCA2^-/-) [nM] | other results
1 | CN1CCCN(c2ccc3c(=O)c(C(=O)NCc4ncc(C5CC5)cn4)c4sc5ccccc5n4c3n2)CC1 [Compound H-27] | 59.2 | – | –
2 | Nc1nc(O)c2ncn(COC(CO)CO)c2n1 [Ganciclovir, reference compound] | – | – | EC50 [2]: 1600 nM; SI (CC50/EC50) [2]: >60.7
3 | CNc1cnc(CNC(=O)c2c(=O)c3ccc(N4CCCN(C)CC4)nc3n3c2sc2ccccc23)nc1 [Compound H-19] | – | 30.3 | –
4 | CN1CCCN(c2ccc3c(=O)c(C(=O)NCc4ncc(C(=O)N(C)C)cn4)c4sc5ccccc5n4c3n2)CC1 [Compound H-15] | – | – | IC50 (hERG): > 30000 nM
5 | COc1ccnc(CNC(=O)c2c(=O)c3ccc(N4CCCN(C)CC4)nc3n3c2sc2ccccc23)n1 [Compound H-17] | 74.6 | – | deaths [3]: no deaths observed
6 | [2H]C([2H])([2H])N1CCCN(c2ccc3c(=O)c(C(=O)NCc4ncccn4)c4sc5ccccc5n4c3n2)CC1 [Compound H-31] | 43.1 | 12.8 | EC50 [2]: 30 nM; SI (CC50/EC50) [2]: >101.7; IC50 (UWB1.289 Cells): 28.8 nM; overall condition / clinical symptoms [4]: no abnormal clinical symptoms were observed; effect on mouse body weight [4]: weight trends similar to the control group; cancer inhibition rate (MDA-MB-436 cancer cells; 25 mg/kg once every 3 days): 82.2%
7 | CN1CCCN(c2ccc3c(=O)c(C(=O)NCc4ncc(C(F)(F)F)cn4)c4sc5ccccc5n4c3n2)CC1 [Compound H-4] | – | 36 | deaths [3]: no deaths observed
8 | COc1cnc(CNC(=O)c2c(=O)c3ccc(N4CCCN(C)CC4)nc3n3c2sc2ccccc23)nc1 [Compound H-16] | – | 27.5 | –
9 | CN1CCCN(c2ccc3c(=O)c(C(=O)NCc4nccc(C5CC5)n4)c4sc5ccccc5n4c3n2)CC1 [Compound H-28] | 41.6 | – | –
10 | [2H]C([2H])([2H])N1C([2H])([2H])C([2H])([2H])CN(c2ccc3c(=O)c(C(=O)NCc4ncccn4)c4sc5ccccc5n4c3n2)C([2H])([2H])C1([2H])[2H] [Compound H-7] | – | 16.2 | –
11 | CCc1cnc(CNC(=O)c2c(=O)c3ccc(N4CCCN(C)CC4)nc3n3c2sc2ccccc23)nc1 [Compound H-21] | 66.8 | – | –
12 | CNC(=O)c1cnc(CNC(=O)c2c(=O)c3ccc(N4CCCN(C)CC4)nc3n3c2sc2ccccc23)nc1 [Compound H-13] | – | – | IC50 (hERG): > 30000 nM
13 | CSc1cnc(CNC(=O)c2c(=O)c3ccc(N4CCCN(C)CC4)nc3n3c2sc2ccccc23)nc1 [Compound H-18] | – | – | IC50 (hERG): 10700 nM
14 | [2H]C([2H])([2H])N1C([2H])([2H])C([2H])([2H])CN(c2ccc3c(=O)c(C(=O)NCc4ncc(F)cn4)c4sc5ccccc5n4c3n2)C([2H])([2H])C1([2H])[2H] [Compound H-8] | – | 15.9 | –
15 | O=C(c1cc(Cc2n[nH]c(=O)c3ccccc23)ccc1F)N1CCN(C(=O)C2CC2)CC1 [Olaparib, reference compound] | – | 490 | IC50 (UWB1.289 Cells): 716 nM; cancer inhibition rate (MDA-MB-436 cancer cells; 100 mg/kg once a day for 28 days): 63.4%
16 | CN1CCCN(c2ccc3c(=O)c(C(=O)NCc4ncc(C#N)cn4)c4sc5ccccc5n4c3n2)CC1 [Compound H-11] | – | 16.2 | –
17 | CN1CCCN(c2ccc3c(=O)c(C(=O)NCc4ncc(F)cn4)c4sc5ccccc5n4c3n2)CC1 [Compound H-1] | 60.7 | 37.7 | –
18 | Cc1cnc(CNC(=O)c2c(=O)c3ccc(N4CCCN(C)CC4)nc3n3c2sc2ccccc23)cn1 [CX-5461] | 33.8 | 43.9 | IC50 (hERG): 5100 nM; IC50 (UWB1.289 Cells): 91.6 nM; overall condition / clinical symptoms [4]: poor overall condition, sluggish movement, and pallor in the tails and toes due to blood loss; effect on mouse body weight [4]: significantly reduced the body weight of the mice; average body weight loss ([4]; administration halted for the entire group): exceeded 10%
19 | CN1CCCN(c2ccc3c(=O)c(C(=O)NCc4ncc(Cl)cn4)c4sc5ccccc5n4c3n2)CC1 [Compound H-2] | 47.2 | 33.8 | –
20 | CN1CCCN(c2ccc3c(=O)c(C(=O)NCc4nccc(C#N)n4)c4sc5ccccc5n4c3n2)CC1 [Compound H-12] | 49.1 | 13.7 | –
21 | [2H]C1([2H])CN(c2ccc3c(=O)c(C(=O)NCc4ncc(F)cn4)c4sc5ccccc5n4c3n2)C([2H])([2H])C([2H])([2H])N(C)C1([2H])[2H] [Compound H-6] | – | 23.8 | –
22 | CCc1ccnc(CNC(=O)c2c(=O)c3ccc(N4CCCN(C)CC4)nc3n3c2sc2ccccc23)n1 [Compound H-22] | 40.6 | 36.7 | –
